Laboratory results published in PubChem BioAssay AID1845198 (Molecular Pharmacology Branch, DTP, NCI, 2023).

Test system: 425362-245-T-J1 tumor spheroids, viability % test/control
Assay: Anticancer human tumor 425362-245-T-J1 patient-derived melanoma cell line growth inhibition
Conditions: spheroids with HUVEC and MSC; for IC50: curve of first compound; for viability, T/C: stronger effect = lower value
Method in brief: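 Complex tumor spheroids combined malignant cells with endothelial cells and mesenchymal stem cells. DNA-damaging drugs and DNA repair inhibitors were tested alone and in combination, at half-log dilutions down from clinical Cmax (top 10 microM if Cmax unknown), 0.25% DMSO final.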

[1] = second compound 1 µM, first compound 0.0316 µM
[2] = second compound 1 µM, first compound 0.1 µM
[3] = second compound 1 µM, first compound 0.316 µM
[4] = second compound 1 µM, first compound 1 µM
[5] = second compound 1 µM, first compound 3.16 µM
[6] = second compound 1 µM, first compound 10 µM
[7] = second compound 3.16 µM, first compound 0.0316 µM
[8] = second compound 3.16 µM, first compound 0.1 µM
[9] = second compound 3.16 µM, first compound 0.316 µM
[10] = second compound 3.16 µM, first compound 1 µM
[11] = second compound 3.16 µM, first compound 3.16 µM
[12] = second compound 3.16 µM, first compound 10 µM
[13] = second compound 10 µM, first compound 0.0316 µM
[14] = second compound 10 µM, first compound 0.1 µM
[15] = second compound 10 µM, first compound 0.316 µM
[16] = second compound 10 µM, first compound 1 µM
[17] = second compound 10 µM, first compound 3.16 µM
[18] = second compound 10 µM, first compound 10 µM
[19] = second compound 31.6 µM, first compound 0.0316 µM
[20] = second compound 31.6 µM, first compound 0.1 µM
[21] = second compound 31.6 µM, first compound 0.316 µM
[22] = second compound 31.6 µM, first compound 1 µM
[23] = second compound 31.6 µM, first compound 3.16 µM
[24] = second compound 31.6 µM, first compound 10 µM
[25] = second compound 100 µM, first compound 0.0316 µM
[26] = second compound 100 µM, first compound 0.1 µM
[27] = second compound 100 µM, first compound 0.316 µM
[28] = second compound 100 µM, first compound 1 µM
[29] = second compound 100 µM, first compound 3.16 µM
[30] = second compound 100 µM, first compound 10 µM
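Further: spheroids exposed to agents for 7 days.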

| SMILES | IC50 (second compound 1 µM) | IC50 (second compound 3.16 µM) | IC50 (second compound 10 µM) | IC50 (second compound 31.6 µM) | IC50 (second compound 100 µM) | viability, T/C [1] | viability, T/C [2] | viability, T/C [3] | viability, T/C [4] | viability, T/C [5] | viability, T/C [6] | viability, T/C [7] | viability, T/C [8] | viability, T/C [9] | viability, T/C [10] | viability, T/C [11] | viability, T/C [12] | viability, T/C [13] | viability, T/C [14] | viability, T/C [15] | also measured |
| --- | --- | --- | --- | --- | --- | --- | --- | --- | --- | --- | --- | --- | --- | --- | --- | --- | --- | --- | --- | --- | --- |
| CC1COCCN1c1cc(-c2ccnn2C)c2ccnc(-c3ccn[nH]3)c2n1 (stereo not given) + Cn1nnc2c(C(N)=O)ncn2c1=O | < 0.0316 µM | < 0.0316 µM | < 0.0316 µM | < 0.0316 µM | < 0.0316 µM | 34% | 9.93% | 9.37% | 7.42% | 8.52% | 7.26% | 46% | 13.1% | 8.7% | 8.72% | 9.76% | 9.55% | 33.1% | 12.4% | 6.43% | viability, T/C [16]: 8.73%; viability, T/C [17]: 8.17%; viability, T/C [18]: 7.97%; viability, T/C [19]: 41.4%; viability, T/C [20]: 10.8%; viability, T/C [21]: 8%; viability, T/C [22]: 8.25%; viability, T/C [23]: 8.57%; viability, T/C [24]: 9.27%; viability, T/C [25]: 16%; viability, T/C [26]: 8.9%; viability, T/C [27]: 6.62%; viability, T/C [28]: 5.43%; viability, T/C [29]: 8.9%; viability, T/C [30]: 6.85% |
| COc1cc(C)[nH]c(=O)c1CN1CCc2c(Cl)cc(C(OC)C3COC3)c(Cl)c2C1=O (stereo not given) + Cn1nnc2c(C(N)=O)ncn2c1=O | > 10 µM | > 10 µM | > 10 µM | > 10 µM | > 10 µM | 87% | 96.6% | 95.9% | 92.1% | 89.8% | 84.7% | 114% | 103% | 110% | 105% | 101% | 92.4% | 104% | 99.9% | 114% | viability, T/C [16]: 114%; viability, T/C [17]: 95.8%; viability, T/C [18]: 97.6%; viability, T/C [19]: 113%; viability, T/C [20]: 111%; viability, T/C [21]: 100%; viability, T/C [22]: 107%; viability, T/C [23]: 89%; viability, T/C [24]: 93.5%; viability, T/C [25]: 94.4%; viability, T/C [26]: 90.4%; viability, T/C [27]: 90.3%; viability, T/C [28]: 89.7%; viability, T/C [29]: 88.3%; viability, T/C [30]: 71.8% |
